How the values were obtained:
arrowleaf sida = experiment: Test C postemergence arrowleaf sida; type: in vivo, Sida rhombifolia; details: 0 to 100 scale, 0 no effect, 100 complete control
Procedure, shortened: (§1)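 Greenhouse postemergence test: compound applied in solvent/surfactant formulation to established plants; visual scoring 0–100 against untreated controls after roughly two to three weeks (14–21 days).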

cotton = experiment: Test C postemergence cotton; type: in vivo, Gossypium hirsutum; details: 0 to 100 scale, 0 no effect, 100 complete control
Procedure, shortened: as §1

fall panicum = experiment: Test C postemergence fall panicum; type: in vivo, Panicum dichotomiflorum; details: 0 to 100 scale, 0 no effect, 100 complete control
Method: (§2) Compounds evaluated in this test were formulated in a non-phytotoxic solvent mixture which included a surfactant and applied to plants that were grown for various periods of time before treatment (postemergence application). A mixture of sandy loam soil and greenhouse potting mix in a 60:40 ratio was used for the postemergence test.
Plantings of these crops and weed species were adjusted to produce plants of appropriate size for the postemergence test. All plant species were grown using normal greenhouse practices. Crop and weed species include arrowleaf sida (Sida rhombifolia), barnyardgrass (Echinochloa crus-galli), cocklebur (Xanthium strumarium), common ragweed (Ambrosia elatior), corn (Zea mays), cotton (Gossypium hirsutum), eastern black nightshade (Solanum ptycanthum), fall panicum (Panicum dichotomiflorum), field bindweed (Convolvulus arvensis), giant foxtail (Setaria faberii), hairy beggarticks (Bidens pilosa), ivyleaf morningglory (Ipomoea hederacea), johnsongrass (Sorghum halepense), ladysthumb smartweed (Polygonum persicaria), lambsquarters (Chenopodium album), large crabgrass (Digitaria sanguinalis), purple nutsedge (Cyperus rotundus), redroot pigweed (Amaranthus retroflexus), soybean (Glycine max), surinam grass (Brachiaria decumbens), velvetleaf (Abutilon theophrasti) and wild poinsettia (Euphorbia heterophylla).
Treated plants and untreated controls were maintained in a greenhouse for approximately 14, to 21 days, after which all treated plants were compared to untreated controls and visually evaluated. Plant response ratings, summarized in Table C, were based upon a 0 to 100 scale where 0 was no effect and 100 was complete control. A dash response (−) means no test result.

deadnettle = experiment: Test E deadnettle; type: in vivo, Lamium amplexicaule; details: Postemergence
Method: as §2, with “in the 1- to 4-leaf stage” for “grown for various periods of time before treatment”
(§3) Plantings of these crops and weed species were adjusted to produce plants of appropriate size for the postemergence test. All plant species were grown using normal greenhouse practices. Crop and weed species include annual bluegrass (Poa annua), blackgrass (Alopecurus myosuroides), black nightshade (Solanum nigra), chickweed (Stellaria media), common poppy (Papaver rhoeas), deadnettle (Lamium amplexicaule), downy brome (Bromus tectorum), field violet (Viola arvensis), galium (Galium aparine), green foxtail (Setaria viridis), Italian ryegrass (Lolium multiflorum), jointed goatgrass (Aegilops cylindrica), kochia (Kochia scoparia), lambsquarters (Chenopodium album), littleseed canarygrass (Phalaris minor), rape (Brassica napus), redroot pigweed (Amaranthus retroflexus), Russian thistle (Salsola kali), scentless chamomile (Matricaria inodora), spring barley (Hordeum vulgare), sugar beet (Beta vulgaris), sunflower (Helianthus annuus), ivyleaf speedwell (Veronica hederaefolia), spring wheat (Triticum aestivum), winter wheat (Triticum aestivum), wild buckwheat (Polygonum convolvulus), wild mustard (Sinapis arvensis), wild oat (Avena fatua), windgrass (Apera spica-venti) and winter barley (Hordeum vulgare).
(§4) Treated plants and untreated controls were maintained in a greenhouse for approximately 21 to 28 days, after which all treated plants were compared to untreated controls and visually evaluated. […] A dash response (-) means no test result.

downy brome = experiment: Test E downy brome; type: in vivo, Bromus tectorum; details: Postemergence; for Plant response rating, Downy brome: 0 to 100 scale; for Plant response rating, Downy brortie: Rate 250 g/ha, 0 to 100 scale (0 no effect, 100 complete control)
Method: as §2, with “in the 1- to 4-leaf stage” for “grown for various periods of time before treatment”
as §3, §4

field violet = experiment: Test E field violet; type: in vivo, Viola arvensis; details: Postemergence
Method: as §2, with “in the 1- to 4-leaf stage” for “grown for various periods of time before treatment”
as §3, §4

lambsquarters = experiment: Test E lambsquarters; type: in vivo, Chenopodium album; details: Postemergence
Procedure, shortened: (§5)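 For postemergence, sowings are timed so plants reach the 1- to 4-leaf stage at spraying. Test compound is applied in a surfactant-containing solvent mixture that is non-phytotoxic. Response is judged by eye against untreated controls after approximately 21 to 28 days.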

littleseed canarygrass = experiment: Test E littleseed canarygrass; type: in vivo, Phalaris minor; details: Postemergence
Procedure, shortened: as §5

wild oat = experiment: Test E wild oat; type: in vivo, Avena fatua; details: Postemergence
Procedure, shortened: as §5

winter barley = experiment: Test E winter barley; type: in vivo, Hordeum vulgare; details: Postemergence
Procedure, shortened: as §5

black nightshade = experiment: Test E black nightshade; type: in vivo, Solanum nigra; details: Preemergence
chickweed = experiment: Test E chickweed; type: in vivo, Stellaria media; details: Preemergence
sunflower = experiment: Test E sunflower; type: in vivo, Helianthus annuus; details: Preemergence
wild buckwheat = experiment: Test E wild buckwheat; type: in vivo, Polygonum convolvulus; details: Preemergence
windgrass = experiment: Test E windgrass; type: in vivo, Apera spica-venti; details: Preemergence
[1] = Rate 250 g/ha, 0 to 100 scale (0 no effect, 100 complete control)
[2] = Rate 62 g/ha, 0 to 100 scale, 0 no effect, 100 complete control
[3] = Rate 125 g/ha, 0 to 100 scale (0 no effect, 100 complete control)
[4] = Rate 500 g/ha, 0 to 100 scale, 0 no effect, 100 complete control
[5] = Rate 500 g/ha, 0 to 100 scale where 0 is no effect and 100 is complete control

CCn1c(=O)on(C(=O)N(c2ccc(F)cc2)C(C)C)c1=O [Compound 107]
Plant response rating Arrowleaf sida (arrowleaf sida; Rate 280 g/ha): 30 | Plant response rating Arrowleaf sida (arrowleaf sida; Rate 560 g/ha): 75 | Plant response rating Arrowleaf sida (arrowleaf sida; Rate 1120 g/ha): 85 | Plant response rating Cotton (cotton; Rate 140 g/ha): 45 | Plant response rating Cotton (cotton; Rate 280 g/ha): 60 | Plant response rating Cotton (cotton; Rate 560 g/ha): 80 | Plant response rating Cotton (cotton; Rate 1120 g/ha): 90 | Plant response rating Fall panicum (fall panicum; Rate 140 g/ha): 50 | Plant response rating Fall panicum (fall panicum; Rate 280 g/ha): 60 | Plant response rating Fall panicum (fall panicum; Rate 560 g/ha): 85 | Plant response rating Fall panicum (fall panicum; Rate 1120 g/ha): 85 | Plant response rating, Deadnettle (deadnettle; Rate 62 g/ha, 0 to 100 scale): 0 | Plant response rating, Deadnettle (deadnettle; Rate 125 g/ha, 0 to 100 scale): 5 | Plant response rating, Deadnettle (deadnettle; [1]): 50 | Plant response rating, Downy brome (downy brome; Rate 62 g/ha): 0 | Plant response rating, Downy brome (downy brome; Rate 125 g/ha): 10 | Plant response rating, Downy brortie (downy brome): 0 | Plant response rating, Field violet (field violet; Rate 62 g/ha, 0 to 100 scale): 0 | Plant response rating, Field violet (field violet; Rate 125 g/ha, 0 to 100 scale): 25 | Plant response rating, Field violet (field violet; [1]): 0 | Plant response rating, Lambsquarters (lambsquarters; Rate 62 g/ha, 0 to 100 scale): 15 | Plant response rating, Lambsquarters (lambsquarters; Rate 125 g/ha, 0 to 100 scale): 15 | Plant response rating, Lambsquarters (lambsquarters; [1]): 5 | Plant response rating, LS canarygrass (littleseed canarygrass; Rate 62 g/ha, 0 to 100 scale): 15 | Plant response rating, LS canarygrass (littleseed canarygrass; Rate 125 g/ha, 0 to 100 scale): 20 | Plant response rating, LS canarygrass (littleseed canarygrass; [1]): 60 | Plant response rating, Wild oat (wild oat; Rate 62 g/ha, 0 to 100 scale): 5 | Plant response rating, Wild oat (wild oat; Rate 125 g/ha, 0 to 100 scale): 5 | Plant response rating, Wild oat (wild oat; [1]): 0 | Plant response rating, Barley (winter) (winter barley; Rate 62 g/ha, 0 to 100 scale): 5 | Plant response rating, Barley (winter) (winter barley; Rate 125 g/ha, 0 to 100 scale): 5 | Plant response rating, Barley (winter) (winter barley; [1]): 10 | Plant response rating, Blk nightshade (black nightshade; [2]): 70 | Plant response rating, Blk nightshade (black nightshade; [3]): 95 | Plant response rating, Blk nightshade (black nightshade; Rate 250 g/ha, 0 to 100 scale): 95 | Plant response rating, Chickweed (chickweed; [2]): 80 | Plant response rating, Chickweed (chickweed; [3]): 50 | Plant response rating, Chickweed (chickweed; Rate 250 g/ha, 0 to 100 scale): 50 | Plant response rating, Sunflower (sunflower; [2]): 20 | Plant response rating, Sunflower (sunflower; [3]): 30 | Plant response rating, Sunflower (sunflower; Rate 250 g/ha, 0 to 100 scale): 40 | Plant response rating, Wild buckwheat (wild buckwheat; [2]): 60 | Plant response rating, Wild buckwheat (wild buckwheat; [3]): 90 | Plant response rating, Wild buckwheat (wild buckwheat; Rate 250 g/ha, 0 to 100 scale): 95 | Plant response rating, Windgrass (windgrass; [2]): 100 | Plant response rating, Windgrass (windgrass; [3]): 100

CCn1c(=O)on(C(=O)N(c2ccc(F)cc2F)C(C)C)c1=O [Compound 116]
Plant response rating Arrowleaf sida (arrowleaf sida; Rate 140 g/ha): 0 | Plant response rating Arrowleaf sida (arrowleaf sida; Rate 560 g/ha): 85 | Plant response rating Arrowleaf sida (arrowleaf sida; Rate 1120 g/ha): 90 | Plant response rating Cotton (cotton; Rate 140 g/ha): 10 | Plant response rating Cotton (cotton; Rate 280 g/ha): 50 | Plant response rating Cotton (cotton; Rate 560 g/ha): 50 | Plant response rating Fall panicum (fall panicum; Rate 140 g/ha): 10 | Plant response rating Fall panicum (fall panicum; Rate 280 g/ha): 60 | Plant response rating Fall panicum (fall panicum; Rate 560 g/ha): 85 | Plant response rating Fall panicum (fall panicum; Rate 1120 g/ha): 90 | Plant response rating, Deadnettle (deadnettle; Rate 62 g/ha, 0 to 100 scale): 0 | Plant response rating, Deadnettle (deadnettle; Rate 125 g/ha, 0 to 100 scale): 0 | Plant response rating, Deadnettle (deadnettle; [1]): 20 | Plant response rating, Deadnettle (deadnettle; [4]): 50 | Plant response rating, Downy brome (downy brome; Rate 62 g/ha): 0 | Plant response rating, Downy brome (downy brome; Rate 125 g/ha): 0 | Plant response rating, Downy brortie (downy brome): 30 | Plant response rating, Downy brome (downy brome; Rate 500 g/ha, 0 no effect, 100 complete control): 60 | Plant response rating, Field violet (field violet; Rate 62 g/ha, 0 to 100 scale): 60 | Plant response rating, Field violet (field violet; Rate 125 g/ha, 0 to 100 scale): 0 | Plant response rating, Field violet (field violet; [1]): 0 | Plant response rating, Field violet (field violet; [4]): 0 | Plant response rating, Lambsquarters (lambsquarters; Rate 62 g/ha, 0 to 100 scale): 20 | Plant response rating, Lambsquarters (lambsquarters; Rate 125 g/ha, 0 to 100 scale): 30 | Plant response rating, Lambsquarters (lambsquarters; [1]): 0 | Plant response rating, Lambsquarters (lambsquarters; [4]): 0 | Plant response rating, LS canarygrass (littleseed canarygrass; Rate 62 g/ha, 0 to 100 scale): 10 | Plant response rating, LS canarygrass (littleseed canarygrass; Rate 125 g/ha, 0 to 100 scale): 30 | Plant response rating, LS canarygrass (littleseed canarygrass; [1]): 40 | Plant response rating, LS canarygrass (littleseed canarygrass; [4]): 50 | Plant response rating, Wild oat (wild oat; Rate 62 g/ha, 0 to 100 scale): 20 | Plant response rating, Wild oat (wild oat; Rate 125 g/ha, 0 to 100 scale): 0 | Plant response rating, Wild oat (wild oat; [1]): 30 | Plant response rating, Wild oat (wild oat; [4]): 70 | Plant response rating, Barley (winter) (winter barley; Rate 62 g/ha, 0 to 100 scale): 0 | Plant response rating, Barley (winter) (winter barley; Rate 125 g/ha, 0 to 100 scale): 10 | Plant response rating, Barley (winter) (winter barley; [1]): 10 | Plant response rating, Barley (winter) (winter barley; [4]): 10 | Plant response rating, Blk nightshade (black nightshade; [3]): 80 | Plant response rating, Blk nightshade (black nightshade; Rate 250 g/ha, 0 to 100 scale): 90 | Plant response rating, Blk nightshade (black nightshade; [5]): 100 | Plant response rating, Chickweed (chickweed; [3]): 100 | Plant response rating, Chickweed (chickweed; Rate 250 g/ha, 0 to 100 scale): 100 | Plant response rating, Chickweed (chickweed; [5]): 100 | Plant response rating, Sunflower (sunflower; [3]): 15 | Plant response rating, Sunflower (sunflower; Rate 250 g/ha, 0 to 100 scale): 40 | Plant response rating, Sunflower (sunflower; [5]): 70 | Plant response rating, Wild buckwheat (wild buckwheat; [3]): 40 | Plant response rating, Wild buckwheat (wild buckwheat; Rate 250 g/ha, 0 to 100 scale): 60 | Plant response rating, Wild buckwheat (wild buckwheat; [5]): 95 | Plant response rating, Windgrass (windgrass; [3]): 100 | Plant response rating, Windgrass (windgrass; [5]): 100

Source: patent publication US6737383B1, “Herbicidal oxadiazolidines” (priority 1999, dated 2004)
